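96-well plates; 48 h exposure; 5 concentrations. Endpoints by linear interpolation between flanking doses. Not reached: highest tested concentration assigned. The concentration for 50% growth inhibition is given as GI50. TGI: total growth inhibition.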
How the values were obtained:
Assay in all cases: NCI tumour cell line growth inhibition, 48 h
[1] = test system: HOP-18 NSCLC
[2] = test system: KM20L2 colon
[3] = test system: LXFL 529 NSCLC
[4] = test system: M19-MEL melanoma
[5] = test system: XF 498 CNS
[6] = test system: P388 leukemia
[7] = test system: P388/ADR leukemia
[8] = test system: SN12K1 renal
[9] = test system: SNB-78 CNS

Structure (SMILES) | TGI [1] [µM] | TGI [2] [µM] | TGI [3] [µM] | TGI [4] [µM] | TGI [5] [µM] | TGI [6] [µM] | TGI [7] [µM] | TGI [8] [µM] | TGI [9] [µM] | GI50 [9] [µM]
CN(C)CN(C)c1nc(N(C)C)nc(N(C)CN(C)C)n1 | > 100 | > 100 | > 100 | > 100 | > 100 | – | – | – | – | –
C(=C/c1nc2ccccc2o1)/c1ccc2c(c1)OCO2 | 60.8 | > 53 | – | > 100 | 48.8 | > 35.8 | > 43.7 | 42 | 90.6 | –
CCOC(=O)C(C)N1C(=O)c2ccccc2S1(=O)=O (centres undefined) | > 100 | – | – | > 100 | > 100 | > 100 | > 100 | > 100 | > 100 | > 100
S=c1nc[nH]c2c1ncn2C1CCCO1 (centres undefined) | > 100 | > 100 | > 100 | – | – | – | – | – | – | –
